In patent US10183950B2, “Thienopyrimidine inhibitors of atypical protein kinase C” (Cancer Research Technology Limited, priority 2011, dated 2019):
pIC50: −log10 of the molar value.

Molecular target: T1, full-length human PKCι (Homo sapiens, UniProt P41743)
T1 construct: Recombinant, full-length human PKCι expressed in Sf21 insect cells is also commercially available; purchased; host or cells: Sf21 insect cells
T1 sequence (P41743 1-596): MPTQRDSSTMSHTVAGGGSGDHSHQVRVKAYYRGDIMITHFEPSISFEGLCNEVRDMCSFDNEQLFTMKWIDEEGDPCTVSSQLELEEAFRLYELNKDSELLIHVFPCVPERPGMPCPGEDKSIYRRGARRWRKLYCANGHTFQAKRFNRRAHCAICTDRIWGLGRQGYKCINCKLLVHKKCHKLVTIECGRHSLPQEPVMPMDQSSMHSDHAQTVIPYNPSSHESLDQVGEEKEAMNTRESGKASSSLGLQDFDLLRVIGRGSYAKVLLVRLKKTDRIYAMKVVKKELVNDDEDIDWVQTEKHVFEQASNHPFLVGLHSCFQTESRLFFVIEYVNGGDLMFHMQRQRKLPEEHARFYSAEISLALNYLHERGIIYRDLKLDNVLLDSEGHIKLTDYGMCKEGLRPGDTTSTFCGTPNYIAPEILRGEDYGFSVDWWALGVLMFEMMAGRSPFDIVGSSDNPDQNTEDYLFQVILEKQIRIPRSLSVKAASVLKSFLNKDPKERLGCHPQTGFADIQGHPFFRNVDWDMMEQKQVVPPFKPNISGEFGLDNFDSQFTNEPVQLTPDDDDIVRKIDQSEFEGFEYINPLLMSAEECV
Assay: PKCι IC50 IMAP fluorescence polarisation assay, full-length enzyme
Type: biochemical
Conditions: full length PKCi at 15 μM ATP; read-out: IC50 in IMAP assay against full length PKCi

SMILES	pIC50
COc1cccc(OC(C)C)c1-c1c(C)sc2c(NC[C@@H](N)Cc3ccccc3)nc(-c3ccncc3)nc12 [compound 440, (S)-N*1*-[7-(2-Isopropoxy-6-methoxy-phenyl)-6-methyl-2-pyridin-4-yl-thieno[3,2-d]pyrimidin-4-yl]-3-phenyl-propane-1,2-diamine]	4.40 to 5.00
Cc1sc2c(NC[C@@H](N)Cc3ccccc3)nc(-c3ccncc3)nc2c1-c1cc(F)ccc1OC(C)C [compound 446, (S)-N*1*-[7-(5-Fluoro-2-isopropoxy-phenyl)-6-methyl-2-pyridin-4-yl-thieno[3,2-d]pyrimidin-4-yl]-3-phenyl-propane-1,2-diamine]	4.40 to 5.00
Cc1sc2c(NC[C@@H](N)Cc3ccccc3)nc(-c3ccncc3)nc2c1-c1ccccc1 [compound 449, (S)-N*1*-(6-Methyl-7-phenyl-2-pyridin-4-yl-thieno[3,2-d]pyrimidin-4-yl)-3-phenyl-propane-1,2-diamine]	5.00 to 6.00
COc1ccc(C)cc1-c1c(C)sc2c(NC[C@@H](N)Cc3ccccc3)nc(-c3ccncc3)nc12 [compound 450, (S)-N*1*-[7-(2-Methoxy-5-methyl-phenyl)-6-methyl-2-pyridin-4-yl-thieno[3,2-d]pyrimidin-4-yl]-3-phenyl-propane-1,2-diamine]	4.40 to 5.00
Cc1sc2c(NC[C@@H](N)Cc3ccccc3)nc(-c3ccncc3)nc2c1-c1c(Cl)cccc1C(F)(F)F [compound 452, (S)-N*1*-[7-(2-Chloro-6-trifluoromethyl-phenyl)-6-methyl-2-pyridin-4-yl-thieno[3,2-d]pyrimidin-4-yl]-3-phenyl-propane-1,2-diamine]	4.40 to 5.00
COc1cccc(Cl)c1-c1c(C)sc2c(NC[C@@H](N)Cc3ccccc3)nc(-c3ccncc3)nc12 [compound 453, (S)-N*1*-[7-(2-Chloro-6-methoxy-phenyl)-6-methyl-2-pyridin-4-yl-thieno[3,2-d]pyrimidin-4-yl]-3-phenyl-propane-1,2-diamine]	4.40 to 5.00
COc1cccc(OC)c1-c1c(C)sc2c(NC[C@@H](N)Cc3ccccc3)nc(-c3ccncc3)nc12 [compound 454, (S)-N*1*-[7-(2,6-Dimethoxy-phenyl)-6-methyl-2-pyridin-4-yl-thieno[3,2-d]pyrimidin-4-yl]-3-phenyl-propane-1,2-diamine]	4.40 to 5.00
COc1cccc(OCC(C)C)c1-c1c(C)sc2c(NC[C@@H](N)Cc3ccccc3)nc(-c3ccncc3)nc12 [compound 455, (S)-N*1*-[7-(2-Isobutoxy-6-methoxy-phenyl)-6-methyl-2-pyridin-4-yl-thieno[3,2-d]pyrimidin-4-yl]-3-phenyl-propane-1,2-diamine]	4.40 to 5.00
COc1cnccc1-c1c(C)sc2c(NC[C@@H](N)Cc3ccccc3)nc(-c3ccncc3)nc12 [compound 456, (S)-N*1*-[7-(3-Methoxy-pyridin-4-yl)-6-methyl-2-pyridin-4-yl-thieno[3,2-d]pyrimidin-4-yl]-3-phenyl-propane-1,2-diamine]	4.40 to 5.00
Cc1nc(C)c(-c2c(C)sc3c(NC[C@@H](N)Cc4ccccc4)nc(-c4ccncc4)nc23)s1 [compound 457, (S)-N*1*-[7-(2,4-Dimethyl-thiazol-5-yl)-6-methyl-2-pyridin-4-yl-thieno[3,2-d]pyrimidin-4-yl]-3-phenyl-propane-1,2-diamine]	4.40 to 5.00
Cc1ccc(OC(C)C)c(-c2c(C)sc3c(NC[C@@H](N)Cc4ccccc4)nc(-c4ccncc4)nc23)c1 [compound 458, (S)-N*1*-[7-(2-Isopropoxy-5-methyl-phenyl)-6-methyl-2-pyridin-4-yl-thieno[3,2-d]pyrimidin-4-yl]-3-phenyl-propane-1,2-diamine]	4.40 to 5.00
Cc1ncccc1-c1c(C)sc2c(NC[C@@H](N)Cc3ccccc3)nc(-c3ccncc3)nc12 [compound 459, (S)-N*1*-[6-Methyl-7-(2-methyl-pyridin-3-yl)-2-pyridin-4-yl-thieno[3,2-d]pyrimidin-4-yl]-3-phenyl-propane-1,2-diamine]	4.40 to 5.00
Cc1sc2c(NC[C@@H](N)Cc3ccccc3)nc(-c3ccncc3)nc2c1-c1cc(Cl)ccc1OC(C)C [compound 460, (S)-N*1*-[7-(5-Chloro-2-isopropoxy-phenyl)-6-methyl-2-pyridin-4-yl-thieno[3,2-d]pyrimidin-4-yl]-3-phenyl-propane-1,2-diamine]	4.40 to 5.00

More lines, now with the values ahead:

pIC50	SMILES
4.40 to 5.00	COc1cccc(-c2c(C(C)(C)C)sc3c(NC[C@@H](N)Cc4ccccc4)nc(-c4ccncc4)nc23)c1 [compound 441, (S)-N*1*-[6-tert-Butyl-7-(3-methoxy-phenyl)-2-pyridin-4-yl-thieno[3,2-d]pyrimidin-4-yl]-3-phenyl-propane-1,2-diamine]
4.40 to 5.00	CC(C)(C)c1sc2c(NC[C@@H](N)Cc3ccccc3)nc(-c3ccncc3)nc2c1-c1ccc(F)cc1 [compound 442, (S)-N*1*-[6-tert-Butyl-7-(4-fluoro-phenyl)-2-pyridin-4-yl-thieno[3,2-d]pyrimidin-4-yl]-3-phenyl-propane-1,2-diamine]
4.40 to 5.00	CC(C)(C)c1sc2c(NC[C@@H](N)Cc3ccccc3)nc(-c3ccncc3)nc2c1-c1ccc(F)nc1 [compound 443, (S)-N*1*-[6-tert-Butyl-7-(6-fluoro-pyridin-3-yl)-2-pyridin-4-yl-thieno[3,2-d]pyrimidin-4-yl]-3-phenyl-propane-1,2-diamine]
4.40 to 5.00	CC(C)(C)c1sc2c(NC[C@@H](N)Cc3ccccc3)nc(-c3ccncc3)nc2c1-c1cccc(N)c1 [compound 444, (S)-N*1*-[7-(3-Amino-phenyl)-6-tert-butyl-2-pyridin-4-yl-thieno[3,2-d]pyrimidin-4-yl]-3-phenyl-propane-1,2-diamine]
4.40 to 5.00	CC(C)(C)c1sc2c(NC[C@@H](N)Cc3ccccc3)nc(-c3ccncc3)nc2c1-c1ccoc1 [compound 445, (S)-N*1*-(6-tert-Butyl-7-furan-3-yl-2-pyridin-4-yl-thieno[3,2-d]pyrimidin-4-yl)-3-phenyl-propane-1,2-diamine]
5.00 to 6.00	Cc1ccc(-c2c(C(C)(C)C)sc3c(NC[C@@H](N)Cc4ccccc4)nc(-c4ccncc4)nc23)s1 [compound 447, (S)-N*1*-[6-tert-Butyl-7-(5-methyl-thiophen-2-yl)-2-pyridin-4-yl-thieno[3,2-d]pyrimidin-4-yl]-3-phenyl-propane-1,2-diamine]
5.00 to 6.00	CNc1ccc(-c2c(C(C)(C)C)sc3c(NC[C@@H](N)Cc4ccccc4)nc(-c4ccncc4)nc23)cc1 [compound 448, (S)-N*1*-[6-tert-Butyl-7-(4-methylamino-phenyl)-2-pyridin-4-yl-thieno[3,2-d]pyrimidin-4-yl]-3-phenyl-propane-1,2-diamine]
4.40 to 5.00	CC(C)(C)c1sc2c(NC[C@@H](N)Cc3ccccc3)nc(-c3ccncc3)nc2c1-c1ccccc1 [compound 451, (S)-N*1*-(6-tert-Butyl-7-phenyl-2-pyridin-4-yl-thieno[3,2-d]pyrimidin-4-yl)-3-phenyl-propane-1,2-diamine]
4.40 to 5.00	COc1ccc(C(C)(C)C)cc1-c1c(C)sc2c(NC[C@@H](N)Cc3ccccc3)nc(-c3ccncc3)nc12 [compound 461, (S)-N*1*-[7-(5-tert-Butyl-2-methoxy-phenyl)-6-methyl-2-pyridin-4-yl-thieno[3,2-d]pyrimidin-4-yl]-3-phenyl-propane-1,2-diamine]
